According to PMC7819857, “Identification of Inhibitors of Integrin Cytoplasmic Domain Interactions With Syk” (Frontiers in Immunology, 2021):

Tested on: MCP-1 gene expression in THP-1 cells
Experiment: Quantitative PCR of adhesion-dependent MCP-1 expression in THP-1 cells
Format: cell-based, human
Details: 100 µM loaded cells, plated on CS-1, 4 h, qPCR
Method: THP-1 cells (2 × 10^6 per treatment group) that were glycerol loaded with ceftazidime (100 µM) or vehicle control (as described above) were plated on CS-1 peptide (10 µg/ml; 6-well plates) in serum-free RPMI-1640. Control cells were also kept in suspension. Plated and suspension cells were incubated for 4 h at 37°C. After incubation, the medium was removed, and RNA was isolated from cells with a Qiagen RNA extraction kit. After cDNA synthesis, quantitative real-time PCR was used to determine the relative gene expression levels of IL-1β and monocyte chemoattractant protein (MCP)-1 in THP-1 cells adhered to CS-1 in the presence of vehicle or ceftazidime relative to that of cells in suspension. The cycle threshold (Ct) results generated were analyzed according to the comparative Ct method (2^-ΔΔCt), where ΔCt is the difference between the CT value of target versus GAPDH control, and ΔΔCt is the difference between the ΔCt values of a given treated adherent cell sample and that of cells in suspension. Statistical differences between the two treatment groups for each target were determined by a two-tailed, unpaired Student t test using GraphPad Prism 7.04 statistical software.
Figure 6 Selective inhibition of integrin signaling by ceftazidime. […] Data are expressed as mean ± range from duplicate determinations. […] Kinase activity is expressed as percent of maximum signal. […]

CC(C)(O/N=C(\C(=O)N[C@@H]1C(=O)N2C(C(=O)[O-])=C(C[n+]3ccccc3)CS[C@H]12)c1csc(N)n1)C(=O)O [ceftazidime]
adhesion-dependent induction of the expression of MCP-1: significantly inhibited
